Assay results reported in US20260315431A1, “NANOMATERIAL ENCAPSULATED BIOFILM INHIBITORS FOR DENTAL CARIES TREATMENT” (THE UAB RESEARCH FOUNDATION, priority 2023, published 2026).
Converted amounts (≈) assume the structure as drawn. Like-named read-outs stand apart in the source and are kept apart here.

What was measured:
S. mutans UA159 [1] = assay: Biofilm inhibition, S. mutans UA159 (crystal violet, OD562); assay type: cell-based, Streptococcus mutans; settings: for IC50 / inhibition at 50 µM: Streptococcus mutans; for inhibition at 50 µM: UA159, 50 μM; for S. mutans biofilm inhibition: 50 μM
Method: (§1) The bacterial strains, S. mutans UA159, S. gordonii DL1, and S. sanguinis SK36 were inoculated statically at 37° C. under 5% CO2 in Todd Hewitt Broth (THB) for 24 h. The cultures were then diluted with fresh THB (1:5) and reinoculated until optical density at 470 nm (OD470) reached 1. The optical density was read using BioTek 800TS microplate reader at 470 nm for bacterial growth and 562 nm for biofilm stained with crystal violet. Data was plotted in Graphpad Prism9.
Biofilm inhibition assays. Biofilm inhibition assays were performed in polystyrene microtiter 96 well plates. Stock solutions were prepared in chemically defined medium (CDM, JRH Biosciences, Lenexa, KS) with 2% sucrose, 1% bacteria cultures and various concentrations of the small molecule inhibitors to examine their activity against biofilm formation as described^69, 70. These stocks were assayed in 96 well plates in triplicate and incubated at 37° C. and 5% CO2 for 16 h. After reading optical density for bacterial growth, the plate was gently washed with water, dried, and stained with crystal violet, and then gently rinsed again with deionized water leaving the stained biofilm at the bottoms of the wells. Biofilms was dissolved in 200 μL of 30% acetic acid and absorbance at 562 nm was used read to determine biofilm biomass. Each assay was carried out at least in triplicate. Biofilm inhibitory concentration (IC50) of the compounds was determined by serial dilutions.
(§2) All bacterial strains (S. mutans UA159, S. gordonii DL1, and S. sanguinis SK36) were inoculated statically at 37° C. under 5% CO2 environment in Todd Hewitt Broth (THB) for 24 h^[61]. The cultures were then diluted with fresh THB (1:5) and reinoculated until the optical density at 470 nm reaches 1. The optical density was read using BioTek 800 TS absorbance reader at 470 nm for bacterial growth and 562 nm for biofilm stained with crystal violet. Data was plotted in Prism 10.0.2.
Biofilm inhibition assays were performed in polystyrene microtiter 96-well plates. Stock solutions were prepared in chemically defined medium (CDM) with 1% sucrose, 1% bacteria cultures and various concentrations of the small molecule inhibitors to examine their activity against biofilm formation as described^[62, 63]. These stocks were assayed in 96 well plates in triplicate and incubated at 37° C. and 5% CO2 for 16 h. After reading optical density for bacterial growth, the plate was washed, dried, and stained with 0.1% crystal violet which was again rinsed well with deionized water leaving the stained biofilm at the bottoms of the wells. This biofilm was dissolved in 200 μL of 30% acetic acid and absorbance at 562 nm was read to determine amount of biofilm formation. Each assay was carried out at least in triplicate. Biofilm inhibitor concentration (IC50) of the compounds was determined by serial dilutions from 0 μM-50 μM (1% DMSO).

S. mutans UA159 [2] = assay: Planktonic growth, S. mutans UA159 (OD470); assay type: cell-based, Streptococcus mutans; settings: for inhibition at 50 µM: Streptococcus mutans, UA159, read-out: planktonic growth inhibition of S. mutans, 50 μM
Method: as §1
(§3) S. mutans, S. gordonii, and S. sanguinis growth assays. Effects of compounds on S. mutans and commensal bacterial growth were evaluated using the growth assay as described^69. S. mutans UA159, S. gordonii DL1, S. sanguinis SK36, cultures were grown for 24 h under 5% CO2 at 37° C. These cultures were then reinoculated with fresh THB (1:5) until OD470=1 when the bacteria were ready to be used. Different concentrations of the inhibitor were assayed in chemically defined media (CDM) with 1% of the bacteria, 1% sucrose and 1% DMSO in 96 well plates. The 96 well plates were incubated under 5% CO2 at 37° C. for 16 h. Growth of the bacteria was read after 16 h at OD470. Each assay was carried out at least in triplicate.
as §2
as §3, with “Effects” for “S. mutans, S. gordonii, and S. sanguinis growth assays. Effects”, “PEHA5, PEHA6, HA5 or HA6” for “compounds”, “described^[62].” for “described^69.”, “PEHA5, PEHA6, HA5 or HA6” for “inhibitor”, “CDM” for “chemically defined media (CDM)”

[3] = Solubility in water containing 1% DMSO (UV spectroscopy); assay type: physicochemical; settings: for solubility compared with IIIC5: comparison with IIIC5 (25 μg/mL); for solubility: organic solvent or mixture, water containing 1% DMSO
Method: Solubility of MA1-6 and HA2-6 were determined as reported^46 (Table 1).
General considerations. ^1H-NMR and ^13C-NMR spectra were recorded on Bruker Avance Neo 400 and Avance II 700 spectrometers using TMS or appropriate solvent signals as internal standard. The chemical shift values are given in parts per million (ppm) relative to the internal standard used and the coupling constants (J) are given in hertz (Hz). High resolution mass spectra (HRMS) were recorded using Waters AutoSpec-Ultima™ NT magnetic sector mass spectrometer with Electron Impact (EI) Ionization source. The mass analyzer is an electric-magnetic-electric (EBE) sector (a double focusing sector). Anhydrous solvents used for reactions were purchased in Sure-Seal™ bottles from Aldrich chemical company. Other chemical reagents were purchased from Aldrich or Fisher chemical companies and used as received. Reactions were monitored with thin layer chromatography (TLC), which was done on silica gel plates with fluorescent indicator (Silicycle, silica gel, UV254, 25 μm plates). The TLC spots were observed under UV light with the wavelengths 254 nm and 365 nm. The reaction mixtures were purified by column chromatography using Si gel (32-63 μm) from Dynamic Absorbent, Inc. Melting points were determined on a Mel-Temp II melting point apparatus and are uncorrected. All tested compounds have ≥95% purity as determined by HPLC. HPLC traces were obtained using Shimadzu SPD-M20A. Solubility of compounds were determined by UV-spectroscopy method using Agilent Cary 60 UV-Vis spectrophotometer. HPLC analysis of the final compounds were conducted using Kinetex 5 μm C18 100 Å, LC Column 150×4.6 mm, compound=3 mM, 20 μL injection, solvent: mobile phase buffer, Conditions: 60% MeCN/40% H2O/0.1% Formic acid (isocratic), HPLC method 0-10 min, Signals were analyzed using a 254 nm UV detector. A chromatogram of Mobile Phase Buffer (20 μL) was obtained for comparison.

[4] = water, 1% dmso; cited from earlier work
[5] = S. mutans UA159 biofilm, read-out: Biofilm IC50

SMILES	IC50 (S. mutans UA159 [1]; UA159, read-out: Biofilm IC50) [µM]	solubility [3] [µg/mL]	inhibition at 50 µM (S. mutans UA159 [2]) [%]	further results
O=C(C=Cc1ccccc1)c1ccccc1O [Compound 3a, 1-(2-Hydroxyphenyl)-3-phenyl-2-propen-1-one]	> 300			
COc1ccc(C=CC(=O)c2ccccc2O)cc1 [Compound 3b, 1-(2-Hydroxyphenyl)-3-(4′-methoxyphenyl)-2-propen-1-one]	> 300			
COc1ccc(C=CC(=O)c2ccccc2O)cc1OC [Compound 3c, 3-(3′,4′-Dimethoxyphenyl)-1-(2-hydroxyphenyl) prop-2-en-1-one]	> 300			
COc1cc(C=CC(=O)c2ccccc2O)cc(OC)c1 [Compound 3d, 3-(3′,5′-Dimethoxyphenyl)-1-(2-hydroxyphenyl) prop-2-en-1-one]	> 300			
COc1cc(OC)c(OC)cc1C=CC(=O)c1ccccc1O [Compound 3e, 1-(2-Hydroxyphenyl)-3-(2′,4′,5′-trimethoxyphenyl) prop-2-en-1-one]	> 300			
COc1cc(C=CC(=O)c2ccccc2O)cc(OC)c1OC [Compound 3f, 1-(2-Hydroxyphenyl)-3-(3′,4′,5′-trimethoxyphenyl) prop-2-en-1-one]	181			inhibition at 50 µM (S. mutans UA159 [1]): 40%; planktonic growth of S. mutans (S. mutans UA159 [2]; 50 μM): no growth inhibition
O=C1/C(=C/c2ccc(O)cc2)Oc2ccccc21 [HA2, 2-[(4′-Hydroxyphenyl)methylidene]-2,3-dihydro-1-benzofuran-3-one]	18.8 ± 2.36	18.9 (≈ 79.5 µM)	60	solubility compared with IIIC5 [3]: lower solubility than IIIC5; inhibition at 50 µM (S. mutans UA159 [1]): > 95%; planktonic growth inhibition of S. mutans (S. mutans UA159 [2]; 50 μM): 70%
O=C1/C(=C/c2ccc(O)c(O)c2)Oc2ccccc21 [HA3, 2-[(3′,4′-Dihydroxyphenyl)methylidene]-2,3-dihydro-1-benzofuran-3-one]	30.7		40	solubility ([3]; UV spectroscopy): 81.6 µg/mL (≈ 321 µM); inhibition at 50 µM (S. mutans UA159 [1]): ~80%; IC50 (S. mutans UA159 [1]; [5]): 30.7 µM
O=C1/C(=C/c2cc(O)cc(O)c2)Oc2ccccc21 [HA4, 2-[(3′,5′-Dihydroxyphenyl)methylidene]-2,3-dihydro-1-benzofuran-3-one]	94.2		30	solubility ([3]; UV spectroscopy): 76.5 µg/mL (≈ 301 µM); S. mutans biofilm inhibition (S. mutans UA159 [1]): did not show significant biofilm inhibition; IC50 (S. mutans UA159 [1]; [5]): 94.2 µM
O=C1C(=Cc2ccccc2)Oc2ccccc21 [MA1, 2-(Phenylmethylidene)-2,3-dihydro-1-benzofuran-3-one]	33.6 ± 0.53		80	solubility compared with IIIC5 [3]: lower solubility than IIIC5; solubility ([3]; UV spectroscopy): 8.51 ± 2 µg/mL (≈ 38.3 µM)
COc1ccc(/C=C2\Oc3ccccc3C2=O)cc1 [MA2, 2-[(4′-Methoxyphenyl)methylidene]-2,3-dihydro-1-benzofuran-3-one]	108	16.2 (≈ 64.3 µM)		solubility compared with IIIC5 [3]: lower solubility than IIIC5; IC50 (S. mutans UA159 [1]; UA159, read-out: Biofilm IC50 (unit inferred)): 108 µM
COc1ccc(/C=C2\Oc3ccccc3C2=O)cc1OC [MA3, 2-[(3′,4′-Dimethoxyphenyl)methylidene]-2,3-dihydro-1-benzofuran-3-one]	49.4	36.3 (≈ 128 µM)		S. mutans biofilm inhibition (S. mutans UA159 [1]): inactive; IC50 (S. mutans UA159 [1]; [5]): 49.4 µM
COc1cc(/C=C2\Oc3ccccc3C2=O)cc(OC)c1 [MA4, 2-[(3′,5′-Dimethoxyphenyl)methylidene]-2,3-dihydro-1-benzofuran-3-one]	> 300	19 (≈ 67.2 µM)		solubility compared with IIIC5 [3]: lower solubility than IIIC5
COc1cc(OC)c(OC)cc1/C=C1\Oc2ccccc2C1=O [MA5, 2-[(2′,4′,5′-Trimethoxyphenyl)methylidene]-2,3-dihydro-1-benzofuran-3-one]	52.8	42.4 (≈ 136 µM)	30	inhibition at 50 µM (S. mutans UA159 [1]): 60%; IC50 (S. mutans UA159 [1]; [5]): 52.8 µM
COc1cc(/C=C2\Oc3ccccc3C2=O)cc(OC)c1OC [MA6, 2-[(3′,4′,5′-Trimethoxyphenyl)methylidene]-2,3-dihydro-1-benzofuran-3-one]	> 300	44.7 (≈ 143 µM)		
O=C(O)c1ccccc1O [Salicylic acid]				solubility [4]: 1880 ± 30 µg/mL (≈ 13600 µM)
